Data published in ChEMBL document CHEMBL4507268 (2021).

Tests used:
[1] = molecular target: T1, Tyrosine-protein kinase receptor TYRO3 (Homo sapiens) (UniProt Q06418); settings: Compound concentration 1000.0 nM
T1 sequence (whole entry): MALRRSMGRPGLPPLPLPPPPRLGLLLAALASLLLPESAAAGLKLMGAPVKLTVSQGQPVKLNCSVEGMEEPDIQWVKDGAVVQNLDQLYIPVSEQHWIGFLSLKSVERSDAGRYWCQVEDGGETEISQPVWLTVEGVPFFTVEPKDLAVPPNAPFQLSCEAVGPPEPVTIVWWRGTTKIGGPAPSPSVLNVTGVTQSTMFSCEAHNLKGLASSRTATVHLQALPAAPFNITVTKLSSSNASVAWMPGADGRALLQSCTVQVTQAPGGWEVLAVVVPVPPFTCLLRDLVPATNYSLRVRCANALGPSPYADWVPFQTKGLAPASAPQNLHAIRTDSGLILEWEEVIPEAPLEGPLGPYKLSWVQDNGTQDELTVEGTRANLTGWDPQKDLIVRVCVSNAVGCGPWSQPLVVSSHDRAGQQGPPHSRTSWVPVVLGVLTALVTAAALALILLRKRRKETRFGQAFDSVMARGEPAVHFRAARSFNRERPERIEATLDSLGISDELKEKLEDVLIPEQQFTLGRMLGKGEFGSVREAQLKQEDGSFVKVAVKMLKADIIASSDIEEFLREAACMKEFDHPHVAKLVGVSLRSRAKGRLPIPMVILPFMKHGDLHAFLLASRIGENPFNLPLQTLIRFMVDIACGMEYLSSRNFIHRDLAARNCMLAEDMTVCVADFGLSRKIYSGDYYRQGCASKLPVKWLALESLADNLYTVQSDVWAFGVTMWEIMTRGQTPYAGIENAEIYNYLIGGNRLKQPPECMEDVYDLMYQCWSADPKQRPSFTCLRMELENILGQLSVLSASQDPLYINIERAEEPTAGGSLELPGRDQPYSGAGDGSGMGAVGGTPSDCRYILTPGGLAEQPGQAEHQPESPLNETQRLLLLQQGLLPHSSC

[2] = molecular target: RAF proto-oncogene serine/threonine-protein kinase (Homo sapiens) (UniProt P04049); settings: Compound concentration 1000.0 nM
Sequence of RAF proto-oncogene serine/threonine-protein kinase (Homo sapiens) (P04049 whole entry): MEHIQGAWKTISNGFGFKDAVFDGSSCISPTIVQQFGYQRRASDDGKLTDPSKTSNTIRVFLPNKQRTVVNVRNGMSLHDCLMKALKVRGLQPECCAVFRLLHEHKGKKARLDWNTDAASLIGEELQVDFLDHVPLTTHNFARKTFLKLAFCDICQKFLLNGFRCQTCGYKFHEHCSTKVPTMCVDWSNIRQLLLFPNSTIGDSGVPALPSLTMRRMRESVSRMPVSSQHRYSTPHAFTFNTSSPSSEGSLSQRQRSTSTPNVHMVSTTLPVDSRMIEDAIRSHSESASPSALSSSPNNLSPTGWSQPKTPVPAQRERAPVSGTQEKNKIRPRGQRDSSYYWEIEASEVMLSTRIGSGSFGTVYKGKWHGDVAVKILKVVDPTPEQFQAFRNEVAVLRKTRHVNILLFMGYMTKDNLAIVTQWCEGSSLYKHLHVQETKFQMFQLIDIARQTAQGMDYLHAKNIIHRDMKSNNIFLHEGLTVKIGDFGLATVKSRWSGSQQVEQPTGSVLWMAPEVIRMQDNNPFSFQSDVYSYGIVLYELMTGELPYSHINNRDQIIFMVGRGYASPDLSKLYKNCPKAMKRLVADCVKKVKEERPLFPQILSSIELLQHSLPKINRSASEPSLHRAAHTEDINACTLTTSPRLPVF

[3] = molecular target: Serine/threonine-protein kinase 10 (Homo sapiens) (UniProt O94804); settings: Compound concentration 1000.0 nM
Sequence of Serine/threonine-protein kinase 10 (Homo sapiens) (O94804 whole entry, looked up): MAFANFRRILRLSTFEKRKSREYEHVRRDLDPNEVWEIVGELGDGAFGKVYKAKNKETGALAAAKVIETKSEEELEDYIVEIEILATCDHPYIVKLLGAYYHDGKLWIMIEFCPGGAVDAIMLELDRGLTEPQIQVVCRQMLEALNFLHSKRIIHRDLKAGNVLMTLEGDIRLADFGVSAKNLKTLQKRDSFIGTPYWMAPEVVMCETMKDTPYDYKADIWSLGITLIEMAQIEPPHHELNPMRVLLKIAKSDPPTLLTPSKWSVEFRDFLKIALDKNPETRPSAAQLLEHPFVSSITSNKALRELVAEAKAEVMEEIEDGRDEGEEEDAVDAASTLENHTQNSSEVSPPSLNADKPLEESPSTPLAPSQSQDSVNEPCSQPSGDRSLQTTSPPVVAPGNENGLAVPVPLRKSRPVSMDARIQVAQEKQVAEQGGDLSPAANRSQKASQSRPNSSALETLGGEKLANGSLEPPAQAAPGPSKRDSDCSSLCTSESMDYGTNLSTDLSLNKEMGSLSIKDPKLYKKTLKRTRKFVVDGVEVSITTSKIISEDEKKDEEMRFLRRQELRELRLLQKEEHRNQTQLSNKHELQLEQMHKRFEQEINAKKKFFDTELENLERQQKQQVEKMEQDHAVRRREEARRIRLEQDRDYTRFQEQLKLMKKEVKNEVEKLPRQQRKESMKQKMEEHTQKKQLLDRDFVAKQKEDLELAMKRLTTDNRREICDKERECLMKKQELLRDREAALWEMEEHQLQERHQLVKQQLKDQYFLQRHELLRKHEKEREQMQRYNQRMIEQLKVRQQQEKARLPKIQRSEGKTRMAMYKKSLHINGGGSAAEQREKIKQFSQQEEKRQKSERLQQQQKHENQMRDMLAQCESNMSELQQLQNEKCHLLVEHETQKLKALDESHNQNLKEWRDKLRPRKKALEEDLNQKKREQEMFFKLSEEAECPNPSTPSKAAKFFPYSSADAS

[4] = molecular target: cAMP-dependent protein kinase catalytic subunit alpha (Homo sapiens) (UniProt P17612); settings: Compound concentration 1000.0 nM
[5] = molecular target: 5-hydroxytryptamine receptor 3A (Homo sapiens) (UniProt P46098); settings: Compound concentration 10.0 uM
Sequence of 5-hydroxytryptamine receptor 3A (Homo sapiens) (P46098 whole entry): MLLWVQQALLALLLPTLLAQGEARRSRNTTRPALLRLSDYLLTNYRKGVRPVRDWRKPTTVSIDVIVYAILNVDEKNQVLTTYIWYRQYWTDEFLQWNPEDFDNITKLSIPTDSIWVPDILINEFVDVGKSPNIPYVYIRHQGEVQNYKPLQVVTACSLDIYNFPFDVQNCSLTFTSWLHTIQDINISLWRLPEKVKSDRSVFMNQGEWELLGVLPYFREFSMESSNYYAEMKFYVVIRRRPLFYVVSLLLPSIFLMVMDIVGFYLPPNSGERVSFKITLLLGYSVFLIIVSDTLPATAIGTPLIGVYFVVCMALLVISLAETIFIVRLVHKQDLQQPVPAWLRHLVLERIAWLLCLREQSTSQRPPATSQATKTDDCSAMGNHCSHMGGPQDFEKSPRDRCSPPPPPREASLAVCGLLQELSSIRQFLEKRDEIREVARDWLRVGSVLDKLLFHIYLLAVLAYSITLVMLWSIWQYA

[6] = molecular target: T2, Mitogen-activated protein kinase 13 (Homo sapiens) (UniProt O15264); settings: Compound concentration 1000.0 nM
T2 sequence (whole entry): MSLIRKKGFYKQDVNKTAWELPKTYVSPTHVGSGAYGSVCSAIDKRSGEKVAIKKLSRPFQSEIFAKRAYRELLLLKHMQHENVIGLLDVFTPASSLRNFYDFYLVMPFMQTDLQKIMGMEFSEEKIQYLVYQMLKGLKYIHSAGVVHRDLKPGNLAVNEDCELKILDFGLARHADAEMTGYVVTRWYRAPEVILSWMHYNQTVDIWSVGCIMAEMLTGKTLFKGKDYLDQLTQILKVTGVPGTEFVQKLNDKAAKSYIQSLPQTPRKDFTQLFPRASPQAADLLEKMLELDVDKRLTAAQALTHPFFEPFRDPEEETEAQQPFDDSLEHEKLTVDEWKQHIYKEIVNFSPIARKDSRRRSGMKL

[7] = molecular target: BMP-2-inducible protein kinase (Homo sapiens) (UniProt Q9NSY1); settings: Compound concentration 1000.0 nM
Sequence of BMP-2-inducible protein kinase (Homo sapiens) (Q9NSY1 whole entry, looked up): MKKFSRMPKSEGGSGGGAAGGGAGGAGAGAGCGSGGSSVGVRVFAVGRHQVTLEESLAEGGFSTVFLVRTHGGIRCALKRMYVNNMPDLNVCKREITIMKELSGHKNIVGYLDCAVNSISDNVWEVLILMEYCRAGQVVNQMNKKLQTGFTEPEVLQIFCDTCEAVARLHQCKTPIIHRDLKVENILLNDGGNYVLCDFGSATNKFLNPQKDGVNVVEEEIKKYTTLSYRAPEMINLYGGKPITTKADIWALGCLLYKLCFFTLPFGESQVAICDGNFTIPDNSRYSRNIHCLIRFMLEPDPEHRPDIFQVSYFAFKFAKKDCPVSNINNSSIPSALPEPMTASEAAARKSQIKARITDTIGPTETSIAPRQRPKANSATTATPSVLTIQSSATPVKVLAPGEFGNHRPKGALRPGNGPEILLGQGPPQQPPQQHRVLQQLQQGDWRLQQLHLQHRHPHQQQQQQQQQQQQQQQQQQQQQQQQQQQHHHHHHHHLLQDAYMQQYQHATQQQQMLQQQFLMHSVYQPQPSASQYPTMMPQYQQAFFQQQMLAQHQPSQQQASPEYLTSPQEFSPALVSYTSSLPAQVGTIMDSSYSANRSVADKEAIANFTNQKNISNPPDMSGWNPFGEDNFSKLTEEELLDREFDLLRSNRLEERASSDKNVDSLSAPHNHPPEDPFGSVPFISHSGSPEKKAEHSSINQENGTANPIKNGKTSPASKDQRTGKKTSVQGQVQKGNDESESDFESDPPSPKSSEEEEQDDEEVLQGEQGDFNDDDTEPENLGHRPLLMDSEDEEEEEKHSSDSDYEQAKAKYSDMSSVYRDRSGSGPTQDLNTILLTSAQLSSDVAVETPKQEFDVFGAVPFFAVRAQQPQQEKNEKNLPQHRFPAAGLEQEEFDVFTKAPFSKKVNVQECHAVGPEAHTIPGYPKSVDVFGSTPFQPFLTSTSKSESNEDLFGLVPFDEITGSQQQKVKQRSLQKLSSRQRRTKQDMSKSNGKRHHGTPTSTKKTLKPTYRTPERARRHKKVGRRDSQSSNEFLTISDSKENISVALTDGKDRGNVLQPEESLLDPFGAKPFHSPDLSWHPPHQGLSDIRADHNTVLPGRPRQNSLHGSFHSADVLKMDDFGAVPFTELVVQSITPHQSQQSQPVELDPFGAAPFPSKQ

[8] = molecular target: T3, Ephrin type-B receptor 3 (Homo sapiens) (UniProt P54753); settings: Compound concentration 1000.0 nM
T3 sequence (whole entry): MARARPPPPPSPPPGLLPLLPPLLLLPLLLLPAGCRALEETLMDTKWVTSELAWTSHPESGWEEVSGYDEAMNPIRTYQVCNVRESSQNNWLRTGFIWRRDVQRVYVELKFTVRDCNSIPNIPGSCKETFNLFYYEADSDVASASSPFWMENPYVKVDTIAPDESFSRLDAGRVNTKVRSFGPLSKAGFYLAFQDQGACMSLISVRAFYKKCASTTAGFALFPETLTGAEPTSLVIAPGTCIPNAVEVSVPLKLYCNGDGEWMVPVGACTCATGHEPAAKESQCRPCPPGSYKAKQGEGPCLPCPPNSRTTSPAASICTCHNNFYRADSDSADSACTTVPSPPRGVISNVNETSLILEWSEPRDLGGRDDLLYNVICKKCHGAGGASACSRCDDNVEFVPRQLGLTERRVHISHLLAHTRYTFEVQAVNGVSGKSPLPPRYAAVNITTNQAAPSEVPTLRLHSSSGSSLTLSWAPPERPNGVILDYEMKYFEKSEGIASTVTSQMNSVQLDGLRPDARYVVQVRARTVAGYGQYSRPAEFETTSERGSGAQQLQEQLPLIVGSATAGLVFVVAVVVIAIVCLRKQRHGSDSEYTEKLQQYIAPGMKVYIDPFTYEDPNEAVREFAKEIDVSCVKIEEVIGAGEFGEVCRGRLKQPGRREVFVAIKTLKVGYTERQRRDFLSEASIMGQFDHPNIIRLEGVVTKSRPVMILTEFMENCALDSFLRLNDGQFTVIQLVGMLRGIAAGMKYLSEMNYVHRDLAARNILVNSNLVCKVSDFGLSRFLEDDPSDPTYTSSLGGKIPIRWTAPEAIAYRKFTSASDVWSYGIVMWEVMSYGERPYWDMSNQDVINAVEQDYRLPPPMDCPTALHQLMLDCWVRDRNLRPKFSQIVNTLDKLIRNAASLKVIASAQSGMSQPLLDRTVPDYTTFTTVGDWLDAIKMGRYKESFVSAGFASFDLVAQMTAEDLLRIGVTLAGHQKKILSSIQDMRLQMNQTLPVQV

Cc1nc(C2CCN(C(=O)c3ccc(OC(F)(F)F)cc3N)CC2)c2ncc(N3CCN(C)CC3)cc2n1 [BAY-693]
inactive: residual activity [1] 100% | residual activity [2] 77% | residual activity [3] 96% | residual activity [4] 100% | inhibition [5] 6.25% | residual activity [6] 100% | residual activity [7] 100% | residual activity [8] 100%

CN1CCN(c2cnc3c(C4CCN(C(=O)c5ccc(OC(F)(F)F)cc5N)CC4)ncnc3c2)CC1 [BAY-885]
inactive: residual activity [1] 100% | residual activity [2] 75% | residual activity [3] 52% | residual activity [4] 100% | inhibition [5] 5.22% | residual activity [6] 100% | residual activity [7] 97% | residual activity [8] 100%
